Like-named read-outs stand apart in the source and are kept apart here.
Tests used:
MESSA DX5 cells = assay: Cytotoxicity assay (PrestoBlue cell viability), MESSA DX5; type: cell-based, human; conditions: for EC50: Homo sapiens, MES-SA/Dx5, 48 hours treatment, chemoresistant line
Method: Messa, Messa DX5, HCT116, HEK-293, PC-3, LNCaP, HCC827 and H1975 cell lines are issued from the American Type Culture Collection (ATCC).
Messa, Messa DX5 and HCT116 were maintained in McCoy's supplemented with 10% fetal bovine serum, and 1% penicillin/streptomycin. PC-3, LNCaP cells were maintained in RPMI medium supplemented with 10% fetal bovine serum, and 1% penicilin/streptomycin and in the case of Messa DX5: 500 nM Doxorubicin was added to maintain selection pressure. HEK293 were maintained in DMEM medium supplemented with 10% fetal bovine serum, and 1% penicillin/streptomycin. Cells were maintained at 37° C. with 5% CO2, 95% air, and humid atmosphere. In the case of hormonal dependent LNCaP cells, 2 μM DiHydroTestosterone (DHT) was added or not—depending on the type of biological assay—for the same incubation period as compounds.
(§1) For cytotoxicity assays, cells were seeded in 96-well microplates 24 hours before the addition of increasing concentrations of each compound in the culture medium. Cell viability was analyzed 48 hours following addition of each compound through the monitoring of mitochondrial […] activity using PrestoBlue® Cell Viability Reagent (Invitrogen; #A-13261). Paclitaxel was used as a control which is cytotoxic on various cancerous cells although not on chemoresistant MESSA DX5 lineage.

[1] = system: PC-3 prostatic cancer cells; assay: Cell growth inhibition and cell death induction (Incucyte), PC-3; type: cell-based, human; conditions: 48 hours, FIG. 12C,D
Source text: (§2) FIG. 12: The cell growth inhibition and cell death induction of non-small cell lung cancers (NSCLC), HCC827 cells and derivative Gefitinib-resistant clone H1975 (FIG. 12 A,B) and of PC-3 (FIG. 12 C,D) and LnCAP (FIG. 12 E,F) were monitored using Incucyte microscope. Histogram represent in A,C,E: the final cell area relative to the total well area in (%) and in B,D,F: the fluorescent area in μm2. Error bars indicate standard deviation between 6 technical replicates.
(§3) The cell growth inhibition and cell death induction of non-small cell lung cancers (NSCLC), HCC827 cells and derivative Gefitinib-resistant clone H1975 were monitored during a period of 72 hours using Incucyte microscope and dedicated programs allowing to monitor cell confluency (i.e.: cell surface area relative to total well surface) and cell death induction by adding Propidium Iodide (PI) at 1 μg/ml (Sigma Aldrich #P4864) in the culture medium.

[2] = molecular target: T1, USP8^CD (purified catalytic domain of USP8) (Homo sapiens, UniProt P40818); assay: Inhibition of purified USP8^CD enzymatic activity (Ub-AMC or Ub-Rho substrate); type: biochemical; conditions: for inhibition at 0.01 µM: 0.01 μM compound; for inhibition at 0.05 µM: 0.05 μM compound; for inhibition at 0.1 µM: 0.1 μM compound; for inhibition at 0.5 µM: 0.5 μM compound; for inhibition at 1 µM: 1 μM compound; for inhibition at 5 µM: 5 μM compound; for inhibition at 10 µM: 10 μM compound; for inhibition at 25 µM: 25 μM compound; for inhibition at 50 µM: 50 μM compound; for inhibition of USP8^CD catalytic activity (IC50 range, FIG. 1): Ub-Rho substrate (0.1 μM)
T1 construct: the purified catalytic domain of USP8 (USP8^CD, in-house purified); made in house; host or cells: E. coli BL21 Gold
T1 sequence (P40818 777-1109 limits assumed): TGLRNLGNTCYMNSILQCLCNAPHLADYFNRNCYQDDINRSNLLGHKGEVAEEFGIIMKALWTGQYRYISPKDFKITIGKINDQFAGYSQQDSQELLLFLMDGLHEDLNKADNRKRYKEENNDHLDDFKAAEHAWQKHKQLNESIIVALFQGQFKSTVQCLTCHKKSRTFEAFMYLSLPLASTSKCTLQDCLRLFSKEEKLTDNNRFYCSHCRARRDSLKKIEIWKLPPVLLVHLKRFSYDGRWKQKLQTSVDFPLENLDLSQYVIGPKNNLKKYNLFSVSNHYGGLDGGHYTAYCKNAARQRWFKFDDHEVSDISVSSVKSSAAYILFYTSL
How it was run: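 His-tagged catalytic domain expressed in E. coli and purified by Ni affinity and gel filtration. Assayed in 50 mM HEPES pH 7.6 or 40 mM Tris pH 7.4 buffer with 1 mM DTT; compound added just before Ub-AMC or Ub-Rho substrate, fluorescence kinetics followed 20 or 30 min. Median of duplicates.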

[3] = system: Gefitinib-resistant clone H1975; assay: Cell growth inhibition and cell death induction (Incucyte), H1975; type: cell-based, human; conditions: 72 hours, FIG. 12A,B
Source text: as §2, §3

[4] = system: all cancerous cells tested; assay: Cytotoxicity assay, summary over all cancerous cells tested; type: cell-based; conditions: Homo sapiens; 48 h treatment; read-out: EC50 of cell death, range over all cancerous cells tested
Method: as §1

[5] = Metabolic stability on human liver microsomes; type: in vitro ADME; conditions: 0.5 μM, up to 30 min; for cofactors (CYP)-mediated metabolism, human: with cofactors; for metabolism in the absence of cofactors, human: without cofactors
Method: (§4) Each compound was incubated either with cofactors (n=2) or without cofactors (n=1). Positive controls were: Diclofenac, Midazolam and Amitriptyline.

[6] = Metabolic stability on mouse liver microsomes; type: in vitro ADME; conditions: 0.5 μM, up to 30 min; for cofactors (CYP)-mediated metabolism, mouse: with cofactors; for metabolism in the absence of cofactors, mouse: without cofactors
Method: as §4

[7] = Ub-AMC substrate at 1 μM, Table 2b, read-out: IC50 USP8 CD
[8] = Ub-Rhodamine substrate at 0.1 μM, Table 2c, read-out: IC50 USP8 CD

Row | inhibition at 0.01 µM ([2]; Table 1d) | inhibition at 0.05 µM ([2]; Table 1d) | inhibition at 0.1 µM ([2]; Table 1d) | inhibition at 0.5 µM ([2]; Table 1d) | inhibition at 1 µM ([2]; Table 1b) | inhibition at 1 µM ([2]; Table 1d) | inhibition at 5 µM ([2]; Table 1b) | inhibition at 5 µM ([2]; Table 1d) | inhibition at 10 µM ([2]; Table 1d) | inhibition at 25 µM ([2]; Table 1b) | inhibition at 50 µM ([2]; Table 1b) | IC50 [2, 7] | IC50 [2, 8] | Compound | EC50 (MESSA DX5 cells) | cell growth inhibition and cell death induction, PC-3 [1] | cell growth inhibition and cell death induction, H1975 [3] | EC50 [4] | sensitivity of chemo-resistant MESSA-DX5 compared with nonresistant MESSA cell line (MESSA DX5 cells) | cofactors (CYP)-mediated metabolism, human [5] | metabolism in the absence of cofactors, human [5] | other results
1 | -25% | 3% | 7% | 65% | 64% | 74% | 103% | 78% | 97% | 115% | 103% | 400 nM | 2300 nM | O=C1c2ccccc2C(=O)c2nc(CS(=O)(=O)c3ccccc3F)c(CS(=O)(=O)c3ccccc3F)nc21 [OVM24] | 800 nM | inhibit cell growth and induce cell death in a dose dependent manner |  |  |  |  |  | 
2 |  |  |  |  |  |  |  |  |  |  |  |  |  | CCCCS(=O)(=O)Cc1nc2c(o1)C(=O)c1ccccc1C2=O [PCR9301] | 1800 nM |  | inhibit cell growth and induce cell death in a dose dependent manner | 1000 to 3500 nM | equally sensitive | not or poorly metabolized | No metabolism was observed | cofactors (CYP)-mediated metabolism, mouse [6]: not or poorly metabolized; metabolism in the absence of cofactors, mouse [6]: No metabolism was observed; inhibition at 0.1 µM ([2]; Table 3a): 53%; inhibition at 0.5 µM ([2]; Table 3a): 81%; inhibition at 1 µM ([2]; Table 3a): 107%; inhibition of USP8^CD catalytic activity (IC50 range, FIG. 1) [2]: in the nanomolar range; IC50 ([2]; Ub-Rho substrate, Table 3b, read-out: IC50 against purified USP8^CD): 80 nM
3 | -17% | 16% | 0% | 67% | 93% | 93% | 98% | 103% | 99% | 100% | 107% | 300 nM | 40 nM | CCCS(=O)(=O)Cc1nc2c(nc1CS(=O)(=O)CCC)C(=O)c1ccccc1C2=O [VIN6074] | 3500 nM | inhibit cell growth and induce cell death in a dose dependent manner |  |  |  |  |  | 
4 |  |  |  |  |  |  |  |  |  |  |  |  |  | CCCCS(=O)(=O)Cc1nc2c(nc1CS(=O)(=O)CCCC)C(=O)c1ccccc1C2=O [PCR6236] | 3500 nM | inhibit cell growth and induce cell death in a dose dependent manner | inhibit cell growth and induce cell death in a dose dependent manner | 1000 to 3500 nM | equally sensitive | low | No metabolism was observed | cofactors (CYP)-mediated metabolism, mouse [6]: high; metabolism in the absence of cofactors, mouse [6]: No metabolism was observed; IC50 [2]: 60 nM; inhibition of USP8^CD catalytic activity (IC50 range, FIG. 1) [2]: in the nanomolar range

Reference: patent US11306063B2, “Heterocyclic naphthoquinones derivatives for use in the treatment of cancers including Cushing disease” (Commissariat a l'Energie Atomique et aux Energies …, priority 2016, dated 2022)
